Test results as given in patent US20210238139A1, “MODULATORS OF TRYPTOPHAN CATABOLISM” (E-Therapeutics PLC, priority 2018, published 2021).

test system: SK-OV-3 cells; test: Effect of compounds on tryptophan catabolism in SK-OV-3 cell line (inhibition of kynurenine production, LC-MS/MS); format: cell-based; settings: Homo sapiens, SK-OV-3, 24 h, SK-OV-3 cell line, 24 h incubation, kynurenine in supernatant by LC-MS/MS; read-out: IC50 Ranges (ic50 values for inhibition of Kynurenine production)
How it was run: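 Cells seeded overnight in McCoy's 5A/10% FBS, then switched to DMEM F-12 with 6 mg/mL L-tryptophan; compounds added at 8 3-fold dilutions from 30 μM, in duplicate, 24 h at 37 °C. Supernatant kynurenine measured by LC-MS/MS; ATP-based viability run in parallel; IC50 from % inhibition of Kyn production.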

IC50 [nM]	SMILES
< 100	Cn1ncc2ccc(CN(C(=O)Nc3ccc(Cl)cc3)C3CCC3)cc21 [Compound 235, 3-(4-chlorophenyl)-1-cyclobutyl-1-[(1-methylindazol-6-yl)methyl]urea]
500 to 1000	C#Cc1ccc(NC(=O)N(Cc2ccc(C)o2)C2COC2)cc1 [Compound 236, 3-(4-ethynylphenyl)-1-[(5-methyl-2-furyl)methyl]-1-(oxetan-3-yl)urea]
100 to 500	O=C(Nc1ccc(Cl)cc1)N(Cc1ccc2ncoc2c1)C1CCC1 [Compound 237, 1-(1,3-benzoxazol-6-ylmethyl)-3-(4-chlorophenyl)-1-cyclobutyl-urea]
100 to 500	Cc1ccc(CN(C(=O)Nc2ccc(Cl)cc2)c2c(C)noc2C)o1 [Compound 238, 3-(4-chlorophenyl)-1-(3,5-dimethylisoxazol-4-yl)-1-[(5-methyl-2-furyl)methyl]urea]
100 to 500	O=C(Nc1ccc(Cl)cc1)N(Cc1cc2ccccn2n1)C1CCC1 [Compound 239, 3-(4-chlorophenyl)-1-cyclobutyl-1-(pyrazolo[1,5-a]pyridin-2-ylmethyl)urea]
< 100	O=C(Nc1ccc(Cl)cc1)N(Cc1ccc2nsnc2c1)C1CCC1 [Compound 240, 1-(2,1,3-benzothiadiazol-5-ylmethyl)-3-(4-chlorophenyl)-1-cyclobutyl-urea]
500 to 1000	Cc1ccc(CN(C(=O)Nc2ccc(C#N)cc2)C2CC(F)(F)C2)o1 [Compound 241, 3-(4-cyanophenyl)-1-(3,3-difluorocyclobutyl)-1-[(5-methyl-2-furyl)methyl]urea]
100 to 500	O=C(Nc1ccc(Cl)cc1)N(Cc1ccc2ncsc2c1)C1CCC1 [Compound 243, 1-(1,3-benzothiazol-6-ylmethyl)-3-(4-chlorophenyl)-1-cyclobutyl-urea]
100 to 500	Cc1ccc(CN(C(=O)Nc2ccc(C#N)cc2)C2CCC(F)(F)C2)o1 (stereo not drawn) [Compound 244, 3-(4-cyanophenyl)-1-(3,3-difluorocyclopentyl)-1-[(5-methyl-2-furyl)methyl]urea]
100 to 500	Cc1ccc(CN(C(=O)Nc2ccc(Cl)cc2)C2CCC(F)(F)C2)o1 (stereo not drawn) [Compound 245, 3-(4-chlorophenyl)-1-(3,3-difluorocyclopentyl)-1-[(5-methyl-2-furyl)methyl]urea]
500 to 1000	Cc1ccc(NC(=O)N(Cc2ccc(C)o2)C2CCCC2)cn1 [Compound 246, 1-cyclopentyl-1-[(5-methyl-2-furyl)methyl]-3-(6-methyl-3-pyridyl)urea]
100 to 500	Cc1ccc(CN(C(=O)Nc2ccc(Cl)cc2)C2CC(F)(F)C2)o1 [Compound 247, 3-(4-chlorophenyl)-1-(3,3-difluorocyclobutyl)-1-[(5-methyl-2-furyl)methyl]urea]
100 to 500	O=C(Nc1ccc(Cl)cc1)N(Cc1nc2ccccc2s1)C1CCC1 [Compound 248, 1-(1,3-benzothiazol-2-ylmethyl)-3-(4-chlorophenyl)-1-cyclobutyl-urea]
> 5000	N#Cc1ccc(NC(=O)N(Cc2cc3ncccc3o2)C2CCC2)cc1 [Compound 249, 3-(4-cyanophenyl)-1-cyclobutyl-1-(furo[3,2-b]pyridin-2-ylmethyl)urea]
1000 to 5000	O=C(Nc1ccc(Cl)cc1)N(Cc1cn2ccccc2n1)C1CCC1 [Compound 250, 3-(4-chlorophenyl)-1-cyclobutyl-1-(imidazo[1,2-a]pyridin-2-ylmethyl)urea]
500 to 1000	COC1CC(N(Cc2ccc(C)o2)C(=O)Nc2ccc(Cl)cc2)C1 (stereo not drawn) [Compound 251, 3-(4-chlorophenyl)-1-(3-methoxycyclobutyl)-1-[(5-methyl-2-furyl)methyl]urea]

IC50 [nM]	SMILES
> 5000	O=C(Nc1ccc(Cl)cc1)N(Cc1cc2ncccc2o1)C1CCC1 [Compound 252, 3-(4-chlorophenyl)-1-cyclobutyl-1-(furo[3,2-b]pyridin-2-ylmethyl)urea]
100 to 500	COc1ccc(NC(=O)N(Cc2ccc(C)o2)C2CCCC2)cn1 [Compound 253, 1-cyclopentyl-3-(6-methoxy-3-pyridyl)-1-[(5-methyl-2-furyl)methyl]urea]
500 to 1000	Cc1ccc(CN(C(=O)Nc2ccc(Cl)cc2)C2CCC(C#N)C2)o1 (stereo not drawn) [Compound 254, 3-(4-chlorophenyl)-1-(3-cyanocyclopentyl)-1-[(5-methyl-2-furyl)methyl]urea]
100 to 500	N#Cc1ccc(NC(=O)N(Cc2ccc3nsnc3c2)C2CCC2)cc1 [Compound 255, 1-(2,1,3-benzothiadiazol-5-ylmethyl)-3-(4-cyanophenyl)-1-cyclobutyl-urea]
> 5000	C#Cc1ccc(NC(=O)N(Cc2ccc(C)o2)C2CCN(C)CC2)cc1 [Compound 258, 3-(4-ethynylphenyl)-1-[(5-methyl-2-furyl)methyl]-1-(1-methyl-4-piperidyl)urea]
100 to 500	C#Cc1ccc(NC(=O)N(Cc2ccc(C)o2)C2CCOCC2)cc1 [Compound 259, 3-(4-ethynylphenyl)-1-[(5-methyl-2-furyl)methyl]-1-tetrahydropyran-4-yl-urea]
< 100	O=C(Nc1ccc(Cl)cc1)N(Cc1ccc2scnc2c1)C1CCC1 [Compound 260, 1-(1,3-benzothiazol-5-ylmethyl)-3-(4-chlorophenyl)-1-cyclobutyl-urea]
< 100	N#Cc1ccc(NC(=O)N(Cc2ccc3scnc3c2)C2CCC2)cc1 [Compound 261, 1-(1,3-benzothiazol-5-ylmethyl)-3-(4-cyanophenyl)-1-cyclobutyl-urea]
< 100	O=C(Nc1ccc(Cl)cc1)N(Cc1cccc2ncsc12)C1CCC1 [Compound 262, 1-(1,3-benzothiazol-7-ylmethyl)-3-(4-chlorophenyl)-1-cyclobutyl-urea]
100 to 500	N#Cc1ccc(NC(=O)N(Cc2cccc3ncsc23)C2CCC2)cc1 [Compound 263, 1-(1,3-benzothiazol-7-ylmethyl)-3-(4-cyanophenyl)-1-cyclobutyl-urea]
> 5000	CN1CCC(N(Cc2ccc3ncsc3c2)C(=O)Nc2ccc(C#N)cc2)CC1 [Compound 264, 1-(1,3-benzothiazol-6-ylmethyl)-3-(4-cyanophenyl)-1-(1-methyl-4-piperidyl) urea]
1000 to 5000	N#Cc1ccc(NC(=O)N(Cc2ccc3ncsc3c2)C2CCOCC2)cc1 [Compound 265, 1-(1,3-benzothiazol-6-ylmethyl)-3-(4-cyanophenyl)-1-tetrahydropyran-4-yl-urea]
1000 to 5000	Cc1ccc(CN(C(=O)Nc2ccc(C#N)cc2)c2ncnn2C)o1 [Compound 266, 3-(4-cyanophenyl)-1-[(5-methyl-2-furyl)methyl]-1-(2-methyl-1,2,4-triazol-3-yl) urea]
100 to 500	Cc1ccc(CN(C(=O)Nc2ccc(Cl)cc2)c2cnnn2C)o1 [Compound 267, 3-(4-chlorophenyl)-1-[(5-methyl-2-furyl)methyl]-1-(3-methyltriazol-4-yl)urea]
500 to 1000	Cc1ccc(CN(C(=O)Nc2ccc(C#N)cc2)c2cnnn2C)o1 [Compound 268, 3-(4-cyanophenyl)-1-[(5-methyl-2-furyl)methyl]-1-(3-methyltriazol-4-yl)urea]
100 to 500	Cc1ccc(CN(C(=O)Nc2ccc(Cl)cc2)[C@H]2C[C@@H](F)C2)o1 [Compound 271, 3-(4-chlorophenyl)-1-(3-fluorocyclobutyl)-1-[(5-methyl-2-furyl)methyl]urea]

same assay, conditions: SK-OV-3 cell line, 24 h incubation, kynurenine in supernatant by LC-MS/MS; read-out: IC50 Ranges (ic50 values for inhibition of Kynurenine production)

IC50 [nM]	SMILES
100 to 500	Cc1ccc(CN(C(=O)Nc2ccc(Cl)cc2)c2cncn2C)o1 [Compound 242, 3-(4-chlorophenyl)-1-[(5-methyl-2-furyl)methyl]-1-(3-methylimidazol-4-yl) urea]
